Calls of active or inactive are those of the source.
Columns and labels:
[1] = target: Glyceraldehyde-3-phosphate dehydrogenase (Homo sapiens, UniProt P04406)
Bcl-2-related protein A1 [2] = target: T1, Bcl-2-related protein A1 (Mus musculus, UniProt Q07440); test: Bfl-1 binding inhibitors, SAR follow-up, biochemical, fluorescence polarization (AID 1070)
T1 sequence (Q07440 whole entry): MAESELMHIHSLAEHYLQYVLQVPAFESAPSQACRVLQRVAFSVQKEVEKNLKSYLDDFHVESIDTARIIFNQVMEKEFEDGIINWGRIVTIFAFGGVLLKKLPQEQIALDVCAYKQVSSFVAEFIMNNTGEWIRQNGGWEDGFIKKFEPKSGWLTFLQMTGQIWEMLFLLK

Bcl-2-related protein A1 [3] = target: T1, Bcl-2-related protein A1; test: Bfl-1 inhibitors blocking BH3 peptide binding, confirmation, biochemical, TR-FRET, mouse Bfl-1 (AID 621);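 also: TR-FRET binding of GST-Bfl-1 to FITC-labelled Bid peptide via terbium antibody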
Streptokinase A = target: T2, Streptokinase A (Streptococcus pyogenes serotype M1, UniProt P10520); test: S. pyogenes streptokinase expression inhibitors, potency, dose response, plasminogen activation absorbance, OD405 (AID 1914); assay type: functional, Streptococcus pyogenes M1 GAS;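 also: secreted streptokinase activity via plasminogen activation per viability signal from cell pellet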
T2 sequence (P10520 whole entry): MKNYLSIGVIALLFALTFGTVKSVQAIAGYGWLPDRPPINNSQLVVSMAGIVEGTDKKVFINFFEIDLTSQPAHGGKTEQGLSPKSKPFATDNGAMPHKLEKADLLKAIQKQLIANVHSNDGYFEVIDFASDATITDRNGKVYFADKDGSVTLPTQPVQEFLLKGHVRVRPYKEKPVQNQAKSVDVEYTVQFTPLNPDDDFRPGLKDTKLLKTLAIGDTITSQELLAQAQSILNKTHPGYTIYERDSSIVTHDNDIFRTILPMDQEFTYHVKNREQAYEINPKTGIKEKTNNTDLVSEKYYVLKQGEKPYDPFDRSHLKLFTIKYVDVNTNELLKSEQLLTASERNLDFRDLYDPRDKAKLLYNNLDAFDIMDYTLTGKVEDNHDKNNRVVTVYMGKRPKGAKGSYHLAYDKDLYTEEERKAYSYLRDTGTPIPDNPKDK

[4] = target: Neuropeptide Y receptor type 2 (Homo sapiens, UniProt P49146); test: Fluorescence-based counterscreen for agonists of NPY-Y1: cell-based high-throughput dose response assay for agonists of NPY-Y2.; assay type: functional
Sequence of Neuropeptide Y receptor type 2 (P49146 whole entry): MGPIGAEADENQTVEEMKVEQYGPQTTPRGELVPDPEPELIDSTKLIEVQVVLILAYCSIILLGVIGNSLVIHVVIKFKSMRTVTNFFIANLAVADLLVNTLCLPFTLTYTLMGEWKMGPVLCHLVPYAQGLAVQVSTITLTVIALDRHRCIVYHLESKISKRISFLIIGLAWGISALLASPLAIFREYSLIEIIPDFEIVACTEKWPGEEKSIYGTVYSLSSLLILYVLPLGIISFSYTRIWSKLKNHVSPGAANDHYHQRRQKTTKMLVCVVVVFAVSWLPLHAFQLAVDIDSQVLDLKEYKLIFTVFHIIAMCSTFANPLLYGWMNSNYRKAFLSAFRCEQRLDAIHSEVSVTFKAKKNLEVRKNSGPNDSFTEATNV

[5] = target: Neuropeptide Y receptor type 1 (Homo sapiens, UniProt P25929); test: Fluorescence-based dose response cell-based high-throughput screening assay for agonists of NPY-Y1. [Related pubchem assays: 1697 (Screening assay (NPY-Y1 agonists).), 1359 (Screening assay (NPY-Y2 potentiators or agonists).), 1304 (Screening assay (NPY-Y1 potentiators or agonists).), 1704 (Screening assay (CNGC inhibitors).), 1791 (Summary AID.)]; assay type: functional
Sequence of Neuropeptide Y receptor type 1 (P25929 whole entry): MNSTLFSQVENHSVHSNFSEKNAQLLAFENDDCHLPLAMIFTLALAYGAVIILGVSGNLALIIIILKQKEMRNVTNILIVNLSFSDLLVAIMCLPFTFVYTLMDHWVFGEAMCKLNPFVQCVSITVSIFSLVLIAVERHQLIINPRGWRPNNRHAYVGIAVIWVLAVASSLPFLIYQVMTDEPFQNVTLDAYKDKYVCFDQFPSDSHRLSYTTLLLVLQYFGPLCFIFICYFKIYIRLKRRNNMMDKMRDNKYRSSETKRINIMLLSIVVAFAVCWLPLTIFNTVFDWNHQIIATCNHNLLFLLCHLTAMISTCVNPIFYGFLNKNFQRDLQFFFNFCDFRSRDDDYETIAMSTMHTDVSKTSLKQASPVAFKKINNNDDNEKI

[6] = target: T3, Sentrin-specific protease 8 (Homo sapiens, UniProt Q96LD8); test: SENP8 protease inhibitors, SAR follow-up, biochemical, luminescence (AID 504501); assay type: functional
T3 sequence (Q96LD8 whole entry): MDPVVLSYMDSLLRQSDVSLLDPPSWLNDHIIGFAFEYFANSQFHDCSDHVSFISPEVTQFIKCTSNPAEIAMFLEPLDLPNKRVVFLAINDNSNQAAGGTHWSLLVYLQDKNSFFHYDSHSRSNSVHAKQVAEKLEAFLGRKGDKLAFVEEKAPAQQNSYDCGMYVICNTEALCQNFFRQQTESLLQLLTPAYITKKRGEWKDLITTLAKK

[7] = target: T4, Sentrin-specific protease 7 (Homo sapiens, UniProt Q9BQF6); test: SENP7 protease inhibitors, SAR follow-up, biochemical, luminescence (AID 504497); assay type: functional
T4 sequence (Q9BQF6 whole entry): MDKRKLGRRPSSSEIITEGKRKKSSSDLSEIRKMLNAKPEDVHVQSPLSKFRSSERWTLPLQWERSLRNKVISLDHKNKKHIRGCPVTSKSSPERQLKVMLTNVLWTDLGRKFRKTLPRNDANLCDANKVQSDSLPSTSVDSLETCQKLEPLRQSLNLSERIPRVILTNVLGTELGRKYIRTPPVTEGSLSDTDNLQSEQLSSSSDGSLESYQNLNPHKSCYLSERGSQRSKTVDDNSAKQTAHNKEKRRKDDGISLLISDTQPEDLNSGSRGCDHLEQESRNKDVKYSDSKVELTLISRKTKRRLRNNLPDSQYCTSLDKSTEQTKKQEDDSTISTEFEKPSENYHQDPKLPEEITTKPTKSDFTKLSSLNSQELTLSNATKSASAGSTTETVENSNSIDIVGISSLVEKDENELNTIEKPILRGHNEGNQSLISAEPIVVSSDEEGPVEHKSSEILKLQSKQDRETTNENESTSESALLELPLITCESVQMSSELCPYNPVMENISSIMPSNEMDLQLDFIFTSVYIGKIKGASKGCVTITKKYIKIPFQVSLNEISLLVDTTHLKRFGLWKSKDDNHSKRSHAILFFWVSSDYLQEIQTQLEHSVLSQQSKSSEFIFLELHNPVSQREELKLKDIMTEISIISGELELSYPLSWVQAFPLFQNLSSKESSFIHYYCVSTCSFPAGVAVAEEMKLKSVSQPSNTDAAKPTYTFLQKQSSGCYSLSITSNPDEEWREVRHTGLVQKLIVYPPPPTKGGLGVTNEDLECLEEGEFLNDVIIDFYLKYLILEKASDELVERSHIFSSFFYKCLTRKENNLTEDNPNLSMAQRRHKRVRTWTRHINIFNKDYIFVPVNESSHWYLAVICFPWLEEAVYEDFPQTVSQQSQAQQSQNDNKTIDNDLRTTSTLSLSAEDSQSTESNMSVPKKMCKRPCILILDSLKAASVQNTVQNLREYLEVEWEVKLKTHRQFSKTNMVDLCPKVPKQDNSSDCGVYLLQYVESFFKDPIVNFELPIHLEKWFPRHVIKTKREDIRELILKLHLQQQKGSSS

[8] = target: Peroxisome proliferator-activated receptor gamma/Nuclear receptor corepressor 2 (Homo sapiens, UniProt P37231+Q9Y618); test: Counterscreen for NR2E3 inverse agonists: TR-FRET-based biochemical high throughput dose response assay to identify inverse agonists of the interaction between peroxisome proliferator-activated receptor gamma (PPARg) and nuclear receptor co-repressor 2 (NCOR2).; assay type: functional
Sequence of Peroxisome proliferator-activated receptor gamma/Nuclear receptor corepressor 2 (P37231 whole entry): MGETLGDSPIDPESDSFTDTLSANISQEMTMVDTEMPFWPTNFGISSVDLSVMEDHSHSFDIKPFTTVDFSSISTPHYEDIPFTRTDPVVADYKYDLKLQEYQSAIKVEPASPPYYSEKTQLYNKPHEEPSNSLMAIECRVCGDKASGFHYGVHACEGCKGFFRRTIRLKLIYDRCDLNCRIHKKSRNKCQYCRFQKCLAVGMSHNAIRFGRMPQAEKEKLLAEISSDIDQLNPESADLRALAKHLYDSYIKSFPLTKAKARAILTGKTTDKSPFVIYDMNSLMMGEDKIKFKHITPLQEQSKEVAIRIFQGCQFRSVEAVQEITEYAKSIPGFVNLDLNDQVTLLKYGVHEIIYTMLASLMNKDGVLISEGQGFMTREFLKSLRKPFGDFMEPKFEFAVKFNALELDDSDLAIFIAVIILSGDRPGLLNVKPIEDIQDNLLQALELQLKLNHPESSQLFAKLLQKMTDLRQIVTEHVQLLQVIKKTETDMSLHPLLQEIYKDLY
Sequence of Peroxisome proliferator-activated receptor gamma/Nuclear receptor corepressor 2 (Q9Y618 whole entry): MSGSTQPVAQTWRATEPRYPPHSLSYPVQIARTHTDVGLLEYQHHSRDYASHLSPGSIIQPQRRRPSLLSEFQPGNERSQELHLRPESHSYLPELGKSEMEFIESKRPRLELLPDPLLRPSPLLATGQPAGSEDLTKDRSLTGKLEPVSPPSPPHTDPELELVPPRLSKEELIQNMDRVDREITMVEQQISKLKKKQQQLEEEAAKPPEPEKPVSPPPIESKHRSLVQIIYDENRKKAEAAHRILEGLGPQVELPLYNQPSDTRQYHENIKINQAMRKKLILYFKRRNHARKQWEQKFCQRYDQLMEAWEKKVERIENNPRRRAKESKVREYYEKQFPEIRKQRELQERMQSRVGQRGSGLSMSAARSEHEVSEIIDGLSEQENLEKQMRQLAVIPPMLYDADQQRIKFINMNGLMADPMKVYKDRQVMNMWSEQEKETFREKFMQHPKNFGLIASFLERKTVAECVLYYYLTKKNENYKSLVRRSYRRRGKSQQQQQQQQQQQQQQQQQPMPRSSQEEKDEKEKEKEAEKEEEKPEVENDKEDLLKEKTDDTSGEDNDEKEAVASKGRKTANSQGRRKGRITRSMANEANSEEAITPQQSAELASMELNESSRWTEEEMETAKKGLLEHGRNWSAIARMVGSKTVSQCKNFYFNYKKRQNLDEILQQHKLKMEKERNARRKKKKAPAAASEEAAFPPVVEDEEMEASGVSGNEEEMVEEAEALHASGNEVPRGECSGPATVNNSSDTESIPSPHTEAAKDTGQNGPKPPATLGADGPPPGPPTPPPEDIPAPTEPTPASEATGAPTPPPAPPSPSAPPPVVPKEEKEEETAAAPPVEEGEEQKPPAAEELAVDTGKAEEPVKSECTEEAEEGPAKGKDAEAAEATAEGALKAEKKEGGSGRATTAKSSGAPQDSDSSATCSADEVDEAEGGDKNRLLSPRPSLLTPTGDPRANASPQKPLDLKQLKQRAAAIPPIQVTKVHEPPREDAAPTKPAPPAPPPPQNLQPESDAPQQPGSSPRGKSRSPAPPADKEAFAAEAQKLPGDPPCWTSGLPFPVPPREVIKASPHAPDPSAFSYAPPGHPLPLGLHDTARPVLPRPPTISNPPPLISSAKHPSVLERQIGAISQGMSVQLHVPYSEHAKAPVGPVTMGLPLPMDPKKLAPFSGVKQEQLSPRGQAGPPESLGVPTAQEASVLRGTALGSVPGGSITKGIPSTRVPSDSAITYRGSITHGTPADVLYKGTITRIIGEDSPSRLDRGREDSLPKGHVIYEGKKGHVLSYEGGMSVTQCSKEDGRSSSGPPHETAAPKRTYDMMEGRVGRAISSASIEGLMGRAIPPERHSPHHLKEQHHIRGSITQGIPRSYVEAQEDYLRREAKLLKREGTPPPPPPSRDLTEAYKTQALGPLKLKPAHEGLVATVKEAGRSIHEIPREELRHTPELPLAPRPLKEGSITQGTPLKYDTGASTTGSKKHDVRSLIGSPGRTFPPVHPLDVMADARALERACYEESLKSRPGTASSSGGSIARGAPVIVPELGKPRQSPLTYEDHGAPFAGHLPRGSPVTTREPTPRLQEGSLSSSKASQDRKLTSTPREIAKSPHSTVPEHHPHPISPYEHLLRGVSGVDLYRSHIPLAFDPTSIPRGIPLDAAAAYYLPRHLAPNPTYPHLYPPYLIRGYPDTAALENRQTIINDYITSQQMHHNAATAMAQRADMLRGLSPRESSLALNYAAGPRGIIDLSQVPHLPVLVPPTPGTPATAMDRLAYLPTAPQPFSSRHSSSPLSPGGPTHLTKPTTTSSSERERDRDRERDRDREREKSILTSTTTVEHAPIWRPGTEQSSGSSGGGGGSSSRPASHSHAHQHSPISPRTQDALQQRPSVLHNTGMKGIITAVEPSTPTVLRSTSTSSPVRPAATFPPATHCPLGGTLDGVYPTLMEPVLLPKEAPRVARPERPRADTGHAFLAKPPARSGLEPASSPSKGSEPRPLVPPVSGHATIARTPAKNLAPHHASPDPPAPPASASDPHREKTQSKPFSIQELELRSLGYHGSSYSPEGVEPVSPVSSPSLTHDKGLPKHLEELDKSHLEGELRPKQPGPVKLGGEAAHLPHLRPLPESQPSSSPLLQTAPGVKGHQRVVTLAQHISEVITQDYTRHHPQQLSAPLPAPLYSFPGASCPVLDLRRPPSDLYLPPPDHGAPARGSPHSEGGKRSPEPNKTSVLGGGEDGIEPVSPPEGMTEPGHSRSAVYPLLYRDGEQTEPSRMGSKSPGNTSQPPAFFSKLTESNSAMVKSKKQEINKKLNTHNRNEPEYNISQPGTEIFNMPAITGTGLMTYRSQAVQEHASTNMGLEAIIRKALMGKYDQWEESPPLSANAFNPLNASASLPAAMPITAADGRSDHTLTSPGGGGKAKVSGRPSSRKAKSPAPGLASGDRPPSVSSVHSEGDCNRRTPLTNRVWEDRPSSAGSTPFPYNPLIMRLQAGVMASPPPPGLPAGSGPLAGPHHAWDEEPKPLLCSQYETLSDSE

[9] = target: T4, Sentrin-specific protease 7; assay type: functional
[10] = target: T3, Sentrin-specific protease 8; assay type: functional
[11] = growth suppression of PTEN-null colon cells, dose response, cell-based, HCT116 PTEN knockout (AID 1047); assay type: functional;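 also: HCT116 colon tumor cells with PTEN knocked out; cells exposed to compound for 60 hours before readout; potency for loss of cell viability measured by luminescence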
[12] = target: T5, Sentrin-specific protease 6 (Homo sapiens, UniProt Q9GZR1); assay type: functional
T5 sequence (Q9GZR1 whole entry): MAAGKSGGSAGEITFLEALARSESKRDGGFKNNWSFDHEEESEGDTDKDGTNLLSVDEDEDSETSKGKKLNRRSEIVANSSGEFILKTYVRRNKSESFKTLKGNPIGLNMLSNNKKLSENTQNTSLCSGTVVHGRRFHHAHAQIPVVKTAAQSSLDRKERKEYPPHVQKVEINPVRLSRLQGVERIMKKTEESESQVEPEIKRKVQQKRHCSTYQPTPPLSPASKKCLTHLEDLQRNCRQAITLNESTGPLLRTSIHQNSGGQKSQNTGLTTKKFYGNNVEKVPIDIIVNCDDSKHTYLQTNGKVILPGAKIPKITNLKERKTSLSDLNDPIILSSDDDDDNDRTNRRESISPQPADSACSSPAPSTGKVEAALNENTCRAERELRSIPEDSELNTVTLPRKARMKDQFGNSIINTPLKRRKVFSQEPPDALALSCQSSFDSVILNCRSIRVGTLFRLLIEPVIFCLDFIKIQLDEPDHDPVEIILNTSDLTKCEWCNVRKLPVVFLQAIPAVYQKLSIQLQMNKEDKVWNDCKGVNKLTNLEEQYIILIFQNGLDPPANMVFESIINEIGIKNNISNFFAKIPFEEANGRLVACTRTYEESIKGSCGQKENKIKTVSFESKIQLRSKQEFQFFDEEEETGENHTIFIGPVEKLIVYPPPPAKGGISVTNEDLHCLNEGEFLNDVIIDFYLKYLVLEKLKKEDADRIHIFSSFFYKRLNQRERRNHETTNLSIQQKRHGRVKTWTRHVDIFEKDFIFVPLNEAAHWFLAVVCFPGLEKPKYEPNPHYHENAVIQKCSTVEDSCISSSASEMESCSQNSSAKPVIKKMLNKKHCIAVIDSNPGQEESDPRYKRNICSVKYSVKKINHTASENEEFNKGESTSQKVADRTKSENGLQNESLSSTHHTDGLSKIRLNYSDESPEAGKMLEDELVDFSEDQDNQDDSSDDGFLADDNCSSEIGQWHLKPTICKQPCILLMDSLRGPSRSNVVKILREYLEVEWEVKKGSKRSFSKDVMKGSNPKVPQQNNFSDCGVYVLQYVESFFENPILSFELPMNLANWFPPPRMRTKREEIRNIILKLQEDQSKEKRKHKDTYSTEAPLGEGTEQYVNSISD

Caspase-3 [13] = target: T6, Caspase-3 (Homo sapiens, UniProt P42574); assay type: functional
T6 sequence (P42574 whole entry): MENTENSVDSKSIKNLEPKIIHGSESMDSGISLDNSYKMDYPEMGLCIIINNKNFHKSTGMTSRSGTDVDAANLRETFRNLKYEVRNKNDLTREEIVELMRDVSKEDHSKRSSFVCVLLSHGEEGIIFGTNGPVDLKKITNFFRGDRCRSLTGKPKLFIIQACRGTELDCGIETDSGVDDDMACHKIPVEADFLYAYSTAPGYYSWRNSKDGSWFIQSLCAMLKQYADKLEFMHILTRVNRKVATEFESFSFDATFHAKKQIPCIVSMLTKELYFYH

[14] = growth suppression of beta-catenin-knockout colon cells, dose response, cell-based, HCT116, human colon tumor (AID 1045); assay type: functional;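 also: HCT116 colon tumor cells with beta catenin knocked out; cells exposed to compound for 60 hours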
Caspase-3 [15] = target: T6, Caspase-3; test: SAR Analysis of small molecule inhibitors of Sentrin-specific proteases (SENPs) using a Caspase-3 Selectivity assay. [Related pubchem assays (depositor defined):AID2540, AID2599, AID434973, AID489001]; assay type: functional
[16] = target: T5, Sentrin-specific protease 6; test: SAR Analysis of small molecule inhibitors of Sentrin-specific protease 6 (SENP6) using a Luminescent assay. [Related pubchem assays (depositor defined):AID2582, AID2599]; assay type: functional
[17] = target: Photoreceptor-specific nuclear receptor (Homo sapiens, UniProt Q9Y5X4); test: NR2E3 inverse agonists, dose response, biochemical, TR-FRET (AID 463256); assay type: functional
Sequence of Photoreceptor-specific nuclear receptor (Q9Y5X4 whole entry): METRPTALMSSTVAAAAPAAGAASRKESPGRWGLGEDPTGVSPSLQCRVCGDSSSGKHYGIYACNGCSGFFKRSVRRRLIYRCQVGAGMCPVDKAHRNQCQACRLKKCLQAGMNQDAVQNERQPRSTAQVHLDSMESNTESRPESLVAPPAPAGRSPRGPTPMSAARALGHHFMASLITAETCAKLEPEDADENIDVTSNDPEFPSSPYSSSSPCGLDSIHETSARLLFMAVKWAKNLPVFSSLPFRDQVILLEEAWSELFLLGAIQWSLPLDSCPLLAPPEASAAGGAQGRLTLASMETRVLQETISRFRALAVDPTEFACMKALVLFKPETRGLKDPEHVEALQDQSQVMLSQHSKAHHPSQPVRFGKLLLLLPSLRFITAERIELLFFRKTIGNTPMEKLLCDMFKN

H4 = test: Luminescence Cell-Based Dose Response HTS to Identify Activators of 5'UTR Stem-Loop Driven Prion Protein mRNA Translation in H4 Neuroglioblastoma Cells. [Related pubchem assays: 1829 (Project Summary), 1814 (Primary HTS)]; assay type: functional; conditions: Homo sapiens
[18] = target: T7, Long-chain-fatty-acid--AMP ligase FadD28 (Mycobacterium tuberculosis, UniProt P9WQ59); test: Fluorescence polarization aasay to screen for inhibitors that compete for the binding of FadD28 to a bisubstrate Measured in Biochemical System Using Plate Reader - 2147-01_Inhibitor_Dose_CherryPick_Activity.; assay type: functional, Mycobacterium tuberculosis H37Rv
T7 sequence (P9WQ59 whole entry): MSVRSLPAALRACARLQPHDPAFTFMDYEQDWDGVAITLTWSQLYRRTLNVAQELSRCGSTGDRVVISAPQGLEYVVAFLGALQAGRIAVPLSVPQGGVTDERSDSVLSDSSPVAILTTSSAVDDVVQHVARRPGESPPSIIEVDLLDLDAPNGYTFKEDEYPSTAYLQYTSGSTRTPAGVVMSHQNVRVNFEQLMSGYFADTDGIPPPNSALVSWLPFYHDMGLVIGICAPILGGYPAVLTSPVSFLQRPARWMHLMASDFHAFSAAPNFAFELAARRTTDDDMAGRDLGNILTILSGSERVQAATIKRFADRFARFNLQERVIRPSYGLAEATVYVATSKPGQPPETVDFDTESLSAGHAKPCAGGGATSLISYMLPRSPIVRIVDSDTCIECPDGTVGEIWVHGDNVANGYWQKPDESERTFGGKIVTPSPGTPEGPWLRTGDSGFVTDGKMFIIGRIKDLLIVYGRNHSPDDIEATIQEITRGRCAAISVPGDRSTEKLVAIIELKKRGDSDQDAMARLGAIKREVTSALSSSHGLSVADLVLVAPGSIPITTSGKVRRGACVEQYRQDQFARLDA

[19] = Luminescence Cell-Based Dose Confirmation to Identify Activators of 5'UTR Stem-Loop Driven Alpha-Synuclein mRNA Translation in H4 Neuroglioblastoma Cells. [Related pubchem assays: 1829 (Project Summary), 1814 (Primary HTS)]; assay type: functional
[20] = Luminescence Cell-Based Dose Response HTS to Identify Activators of Luciferase Translation or Activity in H4 […] Cells. [Related pubchem assays: 1829 (Project Summary), 1814 (Primary HTS)]; assay type: functional
[21] = Luminescence Cell-Based Dose Response to Identify Activators of Luciferase Translation or Activity in H4-C Neuroglioblastoma Cells. [Related pubchem assays: 1829 (Project Summary), 1814 (Primary HTS)]; assay type: functional
[22] = Luminescence Cell-Based Dose Response to Identify Activators of 5'UTR Stem-Loop Driven Prion Protein mRNA Translation in H4-C Neuroglioblastoma Cells. [Related pubchem assays: 1829 (Project Summary), 1814 (Primary HTS)]; assay type: functional

Sequence of Glyceraldehyde-3-phosphate dehydrogenase (P04406 whole entry): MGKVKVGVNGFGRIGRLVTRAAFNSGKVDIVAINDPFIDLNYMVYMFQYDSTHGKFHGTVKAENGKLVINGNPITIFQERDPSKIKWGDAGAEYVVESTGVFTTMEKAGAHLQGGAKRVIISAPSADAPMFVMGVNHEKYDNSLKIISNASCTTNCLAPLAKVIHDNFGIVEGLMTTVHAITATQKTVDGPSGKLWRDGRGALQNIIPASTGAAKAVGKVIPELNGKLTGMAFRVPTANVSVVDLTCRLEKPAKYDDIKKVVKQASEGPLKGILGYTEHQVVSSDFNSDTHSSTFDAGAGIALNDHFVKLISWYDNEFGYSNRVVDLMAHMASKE

CCN1CCN(C2=C(Cl)C(=O)N(c3ccc([N+](=O)[O-])cc3)C2=O)CC1
IC50 [1]: > 100 µM (not active) | IC50 (Bcl-2-related protein A1 [2]): 0.565 µM (active) | IC50 (Bcl-2-related protein A1 [3]): 0.83 µM (active)

CCOc1ccc(NC(=S)NNC(=S)Nc2cccc(C(F)(F)F)c2)cc1
EC50 (Streptokinase A): > 150 µM (not active) | EC50 [4]: > 35.4 µM (not active) | EC50 [5]: 27.3 µM (not active)

Cc1cc2nc(-c3ccc(SCC(=O)Nc4ccc(S(=O)(=O)NC5CC5)cc4)nc3)[nH]c2cc1C
IC50 [6]: > 99 µM (inactive) | IC50 [7]: 2.75 µM (active) | IC50 [8]: 4.15 µM (active) | IC50 [9]: 2.43 µM (active) | IC50 [10]: > 100 µM (inactive) | EC50 [11]: 22.7 µM (active) | IC50 [12]: > 100 µM (inactive) | IC50 (Caspase-3 [13]): 21.3 µM (active) | EC50 [14]: 24.7 µM (active) | IC50 (Caspase-3 [15]): 14.4 µM (active) | IC50 [16]: > 99 µM (inactive) | IC50 [17]: > 39.8 µM (not active)

O=C(O)c1ccc(N/N=C/C(Br)=C/c2ccccc2)cc1
EC50 (H4): 7.2 µM (active) | AC50 [18]: > 100 µM (inactive) | EC50 [19]: 0.425 µM (active) | EC50 [20]: < 0.1 µM (active) | EC50 [21]: 0.368 µM (active) | EC50 [22]: 0.316 µM (active)

Source: ChEMBL document CHEMBL1201862, “PubChem BioAssay data set” (2004)
